Experimental findings from US8062681B2, “Amino acid oligomer dietary supplement” (The Curators Of The University Of Missouri, priority 2006, dated 2011) are described below.

Marks after values point to notes of the source that are not given here.

This data set relates to rumen fluid.

`CSCCC(N)C(=O)O` (centres unmarked) [D, L Met, D,L Methionine]: the “Supplemental Methionine Recovered” value is given as 12.25^c %. Also, for the setting “continuous culture fermenters, .045 g/d supplement with 45 g/d soyhulls”, the “MOEFF (microbial efficiency)” value is reported as 9.11 grams of bacterial nitrogen per kilogram organic matter fermented.
